Here are results for one molecule from article PMC5458211, “Mitochondrial VDAC1-based peptides: Attacking oncogenic properties in glioblastoma” (Oncotarget, 2017).

Non-standard residues stand in square brackets, D forms with d. Residues, ends and D or L forms follow the SMILES beside them.

This experiment has as its system mitochondrial membrane potential (ΔΨm) in U-87MG cells. As to the kind of experiment: Mitochondrial membrane potential (TMRM). The format is cell-based, human. The following applies: 3 h. How it is done: Figure 2 Mode of action of VDAC1-based peptides – interacting with- and detaching HK, releasing Cyto c, decreasing ATP level and inducing apoptosis A. Purified HK-II was fluorescently labeled using the NanoTemper protein-labeling Kit BLUE. […] Then, 3-5 μl of the samples were loaded into MST-grade glass capillaries and thermophoresis was measured using a Monolith-NT115 apparatus, as described in Materials and methods available online in Supplemental information. […] The final DMSO concentration in control and peptide-treated cells was 0.07%. Fixed cells were visualized using confocal microscopy (Olympus 1×81), as described in Materials and Methods available online in Supplemental information. […] The levels of HK in the supernatants were quantified and are presented as relative units. D. D-ΔN-Ter-Antp induces mitochondrial inner membrane depolarization analyzed as described in Materials and Methods available online in Supplemental information. […] Cells then were analyzed for Δψ using TMRM. Δψ is presented as percentage of control. […] Release of Cyto c from the mitochondria was analyzed by immunostaining using anti-Cyto c antibodies and confocal microscopy (Olympus 1×81) as described in Materials and Methods available online in Supplemental information. […] Quantification of apoptosis in control and peptide's treated cells are presented bellow the images. […]

As for `CC[C@@H](C)[C@@H](NC(=O)[C@@H](CCCCN)NC(=O)[C@H](NC(=O)[C@@H](CCC(N)=O)NC(=O)[C@@H](CCCNC(=N)N)NC(=O)[C@@H](CC(C)C)NC(=O)CNC(=O)[C@@H](Cc1ccccc1)NC(=O)CNC(=O)[C@@H](Cc1ccc(O)cc1)NC(=O)CNC(=O)[C@@H](CCCCN)NC(=O)[C@H](NC(=O)[C@@H](Cc1ccccc1)NC(=O)[C@H](NC(=O)[C@@H](CC(=O)O)NC(=O)[C@H](N)CCCNC(=N)N)C(C)C)[C@H](C)O)[C@H](C)CC)C(=O)N[C@H](Cc1c[nH]c2ccccc12)C(=O)N[C@H](Cc1ccccc1)C(=O)N[C@H](CCC(N)=O)C(=O)N[C@H](CC(N)=O)C(=O)N[C@H](CCCNC(=N)N)C(=O)N[C@H](CCCNC(=N)N)C(=O)N[C@H](CCSC)C(=O)N[C@H](CCCCN)C(=O)N[C@H](Cc1c[nH]c2ccccc12)C(=O)N[C@H](CCCCN)C(=O)N[C@H](CCCCN)C(=O)O` [D-ΔN-Ter-Antp] (H-[dR][dD][dV][dF][dT][dK]G[dY]G[dF]G[dL][dR][dQ][dI][dK][dI][dW][dF][dQ][dN][dR][dR][dM][dK][dW][dK][dK]-OH; N-terminus and C-terminus assumed), the “mitochondrial membrane potential (TMRM fluorescence)” value is recorded as “decrease in ΔΨm”.
